These are literature values, as cited in patent publication US8986529B2, “Isotachophoresis having interacting anionic and cationic shock waves” (The Board of Trustees of the Leland Stanford Junior …, priority 2010, dated 2015).

Where two headings read alike, the source gives them in different places.

The conditions of data set [1]: for pKa: text b64: pKa,TE− of Tricine, pKa,LE+ of Imidazole, pKa,TE+ of Arginine.
Setting [2] is: Table 1, fully-ionized (absolute) mobility of the +1 cation, cationic LE+/TE+ candidates for focusing to separation mode.
[3] abbreviates: Table 2, absolute mobility of the cation, cationic LE+/TE+ candidates for bidirectional cascade ITP.
Setting [4] is: Table 2, acid dissociation constant of the cation, bidirectional cascade ITP buffers.
[5] abbreviates: Table 1, cationic LE+/TE+ candidates for focusing to separation mode.

On to `Cc1ccccn1` [2-methyl pyridine], for which the “μ+1” value reads like this: under setting [2], 40.1 ×10^−9 m^2V^−1s^−1; under setting [3], 40.1 ×10^−9 m^2V^−1s^−1. Besides, in data set [1] (setting [4]), the “pKa,+1” value is 6.2.
As to `CC(N)(CO)CO` [Amediol], the “μ+1” value under setting [2] is reported as 33.5 ×10^−9 m^2V^−1s^−1.
For the compound `NC(CO)(CO)CO` [Tris], the “μ+1” value is 29.5 ×10^−9 m^2V^−1s^−1 under setting [2] and 29.5 ×10^−9 m^2V^−1s^−1 under setting [3].
Broadly, the pKa is the negative logarithm of the acid dissociation constant. Consider `N=C(N)NCCC[C@H](N)C(=O)O` [Arginine], for which the “μ+1” value under setting [2] was 26.9 ×10^−9 m^2V^−1s^−1. The “pKa,+1” value in data set [1] (setting [5]) was 8.92. Besides, in data set [1], the pKa is recorded as 8.92.
Regarding `OCCN(CCO)C(CO)(CO)CO` [Bistris], the “μ+1” value under setting [3] is reported as 26 ×10^−9 m^2V^−1s^−1.
As to `Cc1ccncc1` [4-methyl pyridine], under setting [3], the “μ+1” value was 40.1 ×10^−9 m^2V^−1s^−1.
Take `c1c[nH]cn1` [Imidazole]: the “μ+1” value reads like this: under setting [2], 52 ×10^−9 m^2V^−1s^−1; under setting [3], 52 ×10^−9 m^2V^−1s^−1. For the same compound, the “pKa,+1” value in data set [1] (setting [5]) and in data set [1] (setting [4]) was 7.15 each time. Moreover, the pKa in data set [1] is recorded as 7.15.
`c1ccncc1` [Pyridine]: the “μ+1” value under setting [3] is on record as 30 ×10^−9 m^2V^−1s^−1.
For the compound `Cc1cccnc1` [3-methyl pyridine], the “μ+1” value under setting [2] is reported as 40.1 ×10^−9 m^2V^−1s^−1. Besides, the “pKa,+1” value in data set [1] (setting [5]) is 5.5.
